Source: patent US20050043534A1, “Modulators of ceramidase and methods of used based thereon” (priority 2001, published 2005)
Values joined by “and” are separate entries in the source; they are usually repeats but may differ in a detail not shown here. Equal values may be shown once.

Columns and labels:
mitochondrial ceramidase = mitochondrial ceramidase (Rattus norvegicus, UniProt Q91XT9); assay: mitochondrial ceramidase (mt-CDase) activity, radioactive assay or HPLC assay; assay type: biochemical
Protocol: The enzymatic activity of mitochondrial ceramidase was determined by either one of the two following methods:
a. Radioactive assay: The mt-CDase activity was determined by measuring the release of radioactive fatty acid from tritiated ceramide ([^3H]-C16-Cer), labeled in the acyl chain. Briefly, organic solutions of ceramide and its analogues were initially mixed together, solvents were completely evaporated under nitrogen, then the dried lipids were dispersed in Triton-X 100 by sonication and vigorous vortexing. The reaction assay contained (in a final volume of 200 μl): enzyme (5-10 ng) and 10 nmoles of tritiated C16-ceramide (1×10^5 dpm) delivered in 100 μl of 1% Triton X-100 micelles in a glycine buffer pH 9.5 (200 mM).
b. HPLC-assay: The Mt-CDase activity was also determined by measuring the amount of sphingosine released. Basically the assay was initially the same as described above but using non-radioactive ceramide. The reaction was stopped with 800 μl of chloroform: methanol (2:1 v/v) mixture followed by the addition of phyto-sphingosine (0.5 nmoles) and dihydro-sphingosine (1 nmole) as internal standard and carrier, respectively. The reaction mix was then extracted with NaOH (50 μl, 1N), and the lower chloroform layer containing the sphingosine was further washed with water (100 μl) and dried. The released sphingosine was quantified as the ortho-phthaldehyde (OPA) derivatives as described (30). […] The solvent system was methyl alcohol: potassium phosphate buffer (5 mM), pH 7.0 (90:10 v/v) at a flow rate of 1 ml/min. […] Activity was determined relative to the phytosphingosine OPA peak.
The effects of various compounds of the invention which are stereochemical and structural analogues of ceramide and sphingosine on mt-CDase were investigated. […] Results were expressed as percent of the control ceramidase activity.

[1] = system: MCF7 human breast carcinoma cells; assay: MTT cell viability assay, MCF7 cells; assay type: cell-based; conditions: 18 hours treatment
Protocol: The cells were contained at 37° C. in a humidified atmosphere containing 5% CO2 overnight. On Day 2, the cells were treated with the compound of interest which was dissolved in 100% ethanol. […] The control is a sample without the compound of interest.

[2] = system: human embryonal kidney cells HEK-293; assay: MTT cell viability assay, HEK-293 cells; assay type: cell-based; conditions: 18 hours treatment
Protocol: MCF7 human breast carcinoma cells (ATCC No. HTB-22) and human embryonal kidney cells HEK-293 (ATCC No. CRL-1573) were purchased from American Type Culture Collection.
To investigate the effect of the compound of interest on each of these cell lines, on Day 1, about 50 μL (about 5,000 cells) of the MCF7 or HEK-293 cells were plated down into 96-well plate which contains RPMI 1640 1× (MOD) media (purchased from Media Tech) containing L-glutamine and 10% fetal calf serum (purchased from Gibco). The cells were contained at 37° C. in a humidified atmosphere containing 5% CO2 overnight. On Day 2, the cells were treated with the compound of interest which was dissolved in 100% ethanol. To facilitate dissolution of the compound of interest, a 98% ethanol/2% dodecane can be used as the solvent instead of 100% ethanol. […] The cells were treated with the compound of interest for 18 hours after which the effect on cell viability was measured by MTT assay (Mossman, T. (1983) J. Immuno. Meth. 65, 55-63; and Berridge, M. V. and Tan, A. S. (1993) Archives of Biochemistry & Biophysics, 303, 474-482) as described below.
MTT Assay: • (1) Add to each well 25 μL of MTT stock solution (5 mg/mL in PBS); • (2) Incubate for 5 hours; • (3) Add 100 μL of lysing buffer (20% SDS (w/v), 50% N,N-Dimethyl formamide (v/v)) and stand overnight; • (4) read plate at 595 nm.

[3] = system: mouse fibroblast cells, L929; assay: TNFα-induced PGE2 release from L929 cells; assay type: cell-based; conditions: preliminary data
Description: Interleukin-1 is a major inducer of inflammation and TNF is an important regulator of the reaction. Both cytokines can activate ceramidase, and thus inhibiting the activity of ceramidase can result in an anti-inflammatory effect. This may involve the prevention of the formation of sphingosine and sphingosine phosphate which have pro-inflammatory effects. Also, inhibition of ceramidase may prevent the hyperproliferation of immune cells that are important for inflammation. […] The release of PGE2 is also shown to be inhibited by D-(N-myristolyamino)-1-phenyl-1-propanol), D-MAPP, which is an inhibitor of one of the ceramidase. This observation may be important for inhibiting inflammatory reactions that occur in conditions, such as but not limited to rheumatoid arthritis. Thus, it is possible to treat or prevent inflammation by regulating the level of cellular ceramide using the method of the invention. As discussed above, ceramide level can be increased by administering compounds of the present invention that can inhibit mitochondrial ceramidase.

Chain of mitochondrial ceramidase (Q91XT9 whole entry): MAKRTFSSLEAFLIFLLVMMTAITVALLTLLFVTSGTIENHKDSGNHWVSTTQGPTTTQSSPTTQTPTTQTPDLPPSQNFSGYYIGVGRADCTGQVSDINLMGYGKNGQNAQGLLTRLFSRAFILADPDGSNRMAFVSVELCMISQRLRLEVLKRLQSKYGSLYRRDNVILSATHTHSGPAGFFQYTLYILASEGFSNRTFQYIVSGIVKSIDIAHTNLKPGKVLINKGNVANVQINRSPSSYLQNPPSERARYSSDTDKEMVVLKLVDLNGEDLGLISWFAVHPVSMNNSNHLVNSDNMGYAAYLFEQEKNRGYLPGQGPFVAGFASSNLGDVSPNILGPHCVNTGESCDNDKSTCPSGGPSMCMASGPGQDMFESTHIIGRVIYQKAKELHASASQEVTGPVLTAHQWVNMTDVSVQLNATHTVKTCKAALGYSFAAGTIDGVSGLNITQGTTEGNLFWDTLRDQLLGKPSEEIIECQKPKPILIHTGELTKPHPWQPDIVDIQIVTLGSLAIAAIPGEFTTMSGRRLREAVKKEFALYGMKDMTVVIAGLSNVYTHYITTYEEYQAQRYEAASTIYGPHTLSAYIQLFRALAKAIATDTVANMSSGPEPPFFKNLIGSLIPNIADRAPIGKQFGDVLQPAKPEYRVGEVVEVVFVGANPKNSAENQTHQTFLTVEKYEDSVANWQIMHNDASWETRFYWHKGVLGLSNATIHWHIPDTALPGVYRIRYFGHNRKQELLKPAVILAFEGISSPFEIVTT

Row | hydrolysis by mt-CDase (substrate or not, in words) (mitochondrial ceramidase) | Estimated IC50 (mole %) (mitochondrial ceramidase; Table 1, ceramide analogues, hydrolysis of D-erythro-C16 or C18-ceramide at 0.625 mole % (50 μM)) | effect on mt-CDase activity (in words) (mitochondrial ceramidase; concentrations as stated at the place) | inhibition at 50 µM (mitochondrial ceramidase; inhibitor at 0.625 mole % (50 μM), read-out: inhibition (maximal inhibition) of mt-CDase activity) [%] | IC50 (mitochondrial ceramidase; substrate D-erythro-ceramide 50 μM) [µM] | IC50 (50% inhibition of mt-CDase activity) (mitochondrial ceramidase; substrate D-erythro-ceramide 0.625 mole %) | type of inhibition (double reciprocal analysis: Km increased, Vmax unchanged) (mitochondrial ceramidase; varying D-erythro-ceramide concentration) | melting point [°C] | SMILES | effect on cell growth and proliferation (in words) [1] | effect on cell growth and proliferation (in words) [2] | release of PGE2 [3]
1 | not a substrate | 0.33 | potent inhibitor | 75 | 25 | 0.33 mole % and 0.31 mole % | competitive inhibitor | 105 to 106 | CCCCCCCCCCCCC/C=C/[C@@H](O)[C@H](CO)NC(=O)NCCCCCCCCCCCCCCCC [Compound C16-urea-Cer, (2S, 3R,4E)-N-[2-(1,3-Dihydroxy-4E-octadecene)]-N′-hexadecane-urea] | potent inhibitor of cell growth and proliferation | potent inhibitor of cell growth and proliferation | 
2 |  |  |  |  |  |  |  |  | CCCCCCCCCCCCCC(=O)NC(C)C(O)c1ccccc1 [D-MAPP] |  |  | inhibited
